Laboratory results published in PubChem BioAssay (NCI).
“And” between values parts separate entries of the source, which are not always exact repeats. Equal entries are not always repeated.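 Compound exposure: 48 hours, 5 concentrations, 96-well plates. The concentration for 50% growth inhibition is given as GI50. TGI: total growth inhibition.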

Experiments:
Test in all cases: NCI anticancer screen, dose series, 48 h
[1] = test system: EKVX NSCLC
[2] = test system: BT-549 breast
[3] = test system: PC-3 prostate
[4] = test system: LOX IMVI melanoma
[5] = test system: OVCAR-8 ovarian
[6] = test system: NCI-H226 lung
[7] = test system: HCT-116 colon
[8] = test system: MOLT-4 leukemia
[9] = test system: OVCAR-5 ovarian
[10] = test system: SNB-19 CNS

Row | Structure (SMILES) | GI50 [1] [µM] | TGI [1] [µM] | GI50 [2] | TGI [2] | GI50 [3] | TGI [3] | GI50 [4] | TGI [4] | GI50 [5] [µM] | TGI [5] | GI50 [6] | TGI [6] | GI50 [7] | TGI [7] | GI50 [8] | TGI [8] | GI50 [9] | TGI [9] | GI50 [10] | TGI [10]
1 | COc1cc(/C(Cl)=C/C=C/C(=O)c2c(C)[n+]([O-])c3ccc(Cl)cc3[n+]2[O-])cc(OC)c1OC | 14.2 | > 50 | 6.47 µM | 39.4 µM | 3.58 µM | > 50 µM | 1.77 µM | 7.54 µM | 3.09 | > 50 µM | 13.3 µM | > 50 µM | 2.12 µM | 8.98 µM | 1.35 µM | 3.56 µM | 13 µM | 33.2 µM | 15 µM | > 50 µM
2 | CN1CCN(c2ccc(C(=O)Nc3n[nH]c4ccc(Cc5cc(F)cc(F)c5)cc34)c(NC3CCOCC3)c2)CC1 | 3.07 | > 10 | 5.61 µM and 1.8 µM | > 10 µM and 3.28 µM | 2.83 µM and 1.38 µM | > 10 µM and 2.99 µM | 1.35 µM and 1.34 µM | 2.7 µM and 2.69 µM | 1.73 | > 10 µM and 3.48 µM | 1.47 µM and 1.36 µM | > 10 µM and 3.11 µM | 1.53 µM and 1.36 µM | 3.27 µM and 2.73 µM | 2.18 µM and 1.82 µM | 7.18 µM and 4.42 µM | 1.85 µM and 1.31 µM | > 10 µM and 2.73 µM | 4.24 µM and 1.79 µM | > 10 µM and 3.53 µM
3 | COc1cc(-c2nn3c(/C=C4/C(=O)Nc5ccccc54)c(-c4ccc(C)cc4)nc3s2)cc(OC)c1OC | – | – | 4.69 µM | 38.1 µM | 81.1 µM | > 100 µM | – | – | 3.71 | > 100 µM | 22.5 µM | 59.9 µM | 2.59 µM | 13.8 µM | – | – | > 100 µM | > 100 µM | 7.89 µM | 34.2 µM
4 | Cc1c2cnccc2c(C)c2c1c1cc(C3OCCCO3)ccc1n2C | 0.451 | 2.56 | 0.52 µM | 2.11 µM | 0.402 µM | 2.24 µM | 0.146 µM | 0.659 µM | 0.139 | 1.95 µM | 0.213 µM | 0.962 µM | 0.0472 µM | 1.05 µM | 0.332 µM | 1.74 µM | 0.436 µM | 3.7 µM | 0.295 µM | 2.97 µM
5 | O=C(c1ccccc1)c1c(NCC(O)CN2CCCC2)n(Cc2ccccc2)c(=O)n(Cc2ccccc2)c1=O (stereo not given) | 19.6 | 49.1 | 13.1 µM | 27 µM | 17.5 µM | 36.6 µM | 15.7 µM | 29.4 µM | 18.5 | 36.2 µM | 18.6 µM | 48.4 µM | 15 µM | 28.2 µM | 19.7 µM | > 100 µM | 29.7 µM | 82 µM | 63.4 µM | > 100 µM
6 | CC/C(Cc1ccccc1)=C(\c1ccc(OCCN2CCCCCC2)cc1)c1ccc(OC(=O)NCc2ccccc2)cc1 | 6.29 | 14.1 | 6.74 µM | 14.1 µM | 2.3 µM | 8.36 µM | 0.924 µM | 1.75 µM | 1.67 | 4.96 µM | 8.14 µM | 17.5 µM | 0.895 µM | 1.63 µM | 1.15 µM | 3.78 µM | 6.2 µM | 12.8 µM | 3.7 µM | 10.4 µM
7 | C=CC(=O)Nc1ccc(Nc2nccc(-c3ccc(N4CCCC4)c(C#N)c3)n2)cc1 | > 25 | > 25 | > 25 µM | > 25 µM | 20.9 µM | > 25 µM | > 25 µM | > 25 µM | > 25 | > 25 µM | > 25 µM | > 25 µM | 6.03 µM | > 25 µM | 7.43 µM | > 25 µM | > 25 µM | > 25 µM | > 25 µM | > 25 µM
8 | O=C(/C=C/c1ccc(B(O)O)cc1)/C=C/c1ccc(B(O)O)cc1 | – | – | 1.55 µM | 3.35 µM | 3.31 µM | 14.3 µM | 1.59 µM | 3.07 µM | 9.39 | 22 µM | 3.23 µM | 16.1 µM | 0.343 µM | 1.21 µM | 3.59 µM | 66.3 µM | 4.4 µM | 20.3 µM | 6.09 µM | 21.2 µM
9 | O=S(=O)(Nc1ncccn1)c1ccc(N=Nc2ccc(O)c3ncccc23)cc1 | – | – | 10.7 µM | 27 µM | 15.6 µM | > 100 µM | 8.7 µM | 33.7 µM | 3.6 | 27.2 µM | 13.4 µM | 30.5 µM | 4.2 µM | 40.4 µM | 5.68 µM | 51.2 µM | 29.7 µM | 89.2 µM | 6.83 µM | > 100 µM
10 | CC(C)(C)OC(=O)NCCNC1=CC(=O)c2nc3ccccc3c3ccnc1c23 | 41.4 | > 100 | 20.5 µM | 51.7 µM | 15.1 µM | 49.2 µM | – | – | 16.6 | > 100 µM | 21.1 µM | 52.8 µM | 22.3 µM | > 100 µM | – | – | 28 µM | 86.1 µM | 22.7 µM | 83.7 µM
11 | CC(C)=CCN=C(N)N | – | > 100 | – | > 100 µM | – | > 100 µM | – | > 100 µM | – | > 100 µM | – | > 100 µM | – | > 100 µM | – | > 100 µM | – | – | – | > 100 µM
